{"source": "patent US6921774B2", "about": "“Compounds and their use as glycine transport inhibitors” (H. Lundbeck A/S, priority 2000, dated 2005)", "note": "Counter-ions that a name gives are not always drawn.", "data": [{"biological_target": "T1, human GlyT-1b (Homo sapiens, UniProt P48067)", "T1 construct": "expressed in transfected cells", "T1 sequence (P48067 1-652 isoform P48067-3)": "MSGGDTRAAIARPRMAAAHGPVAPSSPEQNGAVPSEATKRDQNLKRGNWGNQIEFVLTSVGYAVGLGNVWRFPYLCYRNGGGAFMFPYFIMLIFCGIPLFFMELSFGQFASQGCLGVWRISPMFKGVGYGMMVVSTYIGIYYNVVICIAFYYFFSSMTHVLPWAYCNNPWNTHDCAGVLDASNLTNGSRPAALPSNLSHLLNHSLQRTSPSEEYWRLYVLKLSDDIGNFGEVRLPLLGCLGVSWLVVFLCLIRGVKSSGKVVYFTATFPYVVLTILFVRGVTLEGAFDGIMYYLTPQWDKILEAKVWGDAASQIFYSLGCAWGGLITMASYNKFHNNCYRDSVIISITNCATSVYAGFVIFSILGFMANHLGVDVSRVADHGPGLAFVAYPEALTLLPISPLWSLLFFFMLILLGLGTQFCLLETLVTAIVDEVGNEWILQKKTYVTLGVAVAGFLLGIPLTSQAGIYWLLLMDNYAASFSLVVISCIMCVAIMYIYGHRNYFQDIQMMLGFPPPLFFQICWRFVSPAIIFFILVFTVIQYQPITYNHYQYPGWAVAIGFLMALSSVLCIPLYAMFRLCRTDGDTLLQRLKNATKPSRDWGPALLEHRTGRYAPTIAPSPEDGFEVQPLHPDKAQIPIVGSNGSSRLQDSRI", "test": "[3H]-Glycine uptake in cells transfected with human GlyT-1b", "type": "cell-based", "details": "6 min pre-incubation, 10 nM 3H-glycine, 15 min, read-out: IC50 GlyT-1b (Inhibition of Glycine Transport by hGlyT-)", "protocol": "The compounds of the invention were tested in a well-recognised and reliable test measuring glycine uptake:\nCells transfected with the human GlyT-1b were seeded in 96 well plates. Prior to the experiment the cells were washed twice in HBS (10 mM Hepes-tris (pH 7.4), 2.5 mM KCl, 1 mM CaCl2, 2.5 mM MgSO4,) and pre-incubated with test compound for 6 minutes. Afterwards, 10 nM ^3H-glycine was added to each well and the incubation was continued for 15 minutes. The cells were washed twice in HBS. Scintillation fluid was added and the Plates were counted on a Trilux (Wallac) scintillation counter.", "units": {"IC50": "µM"}, "values": [{"compound": "C[C@@H](C(=O)O)N(C)CCCC1(c2ccc(Cl)cc2)OCc2cc(Cl)ccc21", "note": "(some centres unmarked) [Compound 3l, N-{3-[5-chloro-1-(4-chlorophenyl)-1,3-dihydroisobenzofuran-1-yl]-1-propyl}-N-methylalanine hydrochloride]", "IC50": 5.5}, {"compound": "CN(CCCC1(c2ccc(Cl)cc2)OCc2ccc(Cl)cc21)CC(=O)O", "note": "(centres unmarked) [Compound 3m, N-{3-[6-chloro-1-(4-chlorophenyl)-1,3-dihydroisobenzofuran-1-yl]-1-propyl}-N-methylglycine hydrochloride.]", "IC50": 7.2}, {"compound": "Cc1ccc(-c2ccc3c(c2)COC3(CCCN(C)CC(=O)O)c2ccc(Cl)cc2)cc1", "note": "(centres unmarked) [Compound 4d, N-{3-[1-(4-Chloro-phenyl)-5-(4-methyl-phenyl)-1,3-dihydro-isobenzofuran-1-yl]-propyl}-N-methyl-glycine]", "IC50": 1.5}, {"compound": "Cc1ccc(-c2ccc3c(c2)COC3(CCN(C)CC(=O)O)c2ccc(Cl)cc2)cc1", "note": "(centres unmarked) [Compound 3al, N-{3-[1-(4-Chloro-phenyl)-5-(4-methyl-phenyl)-1,3-dihydro-isobenzofuran-1-yl]-ethyl}-N-methyl-glycine]", "IC50": 2.2}, {"compound": "Cc1cc(C2(CCCN(C)CC(=O)O)OCc3cc(C#N)ccc32)ccc1F", "note": "(centres unmarked) [Compound 3t, N-{3-[5-cyano-1-(3-methyl-4-fluorophenyl)-1,3-dihydroisobenzofuran-1-yl]-1-propyl}-N-methylglycine hydrochloride.]", "IC50": 5.7}, {"compound": "CN(CCC1(c2ccc(Cl)cc2)OC(C)(C)c2ccccc21)CC(=O)O", "note": "(centres unmarked) [Compound 3af, N-{2-[1-(4-Chloro-phenyl)-3,3-dimethyl-1,3-dihydro-isobenzofuran-1-yl]-ethyl}-N-methylglycine]", "IC50": 3.5}, {"compound": "CN(CCC1(c2ccc(Cl)cc2)OCc2cc(-c3cccs3)ccc21)CC(=O)O", "note": "(centres unmarked) [Compound 4c, N-{3-[1-(4-Chloro-phenyl)-5-(2-thiophenyl)-1,3-dihydro-isobenzofuran-1-yl]-ethyl}-N-methyl-glycine]", "IC50": 1.2}, {"compound": "N-[2-(3-methyl-1-phenyl-indan-1-yl)-ethyl]-amino}-N-methyl alanine [Compound 3ak]", "IC50": 2.2}, {"compound": "CN(CCCC1(c2ccc(Cl)cc2)OCc2cc(Br)ccc21)CC(=O)O", "note": "(centres unmarked) [Compound 3ae, N-{3-[5-Bromo-1-(4-chlorophenyl)-1,3-dihydroisobenzofuran-1-yl]-1-propyl}-N-methylglycine]", "IC50": 4}, {"compound": "Cc1ccccc1-c1ccc2c(c1)COC2(CCN(C)CC(=O)O)c1ccc(Cl)cc1", "note": "(centres unmarked) [Compound 4j, N-{3-[1-(4-Chloro-phenyl)-5-(2-methyl-phenyl)-1,3-dihydro-isobenzofuran-1-yl]-ethyl}-N-methyl-glycine]", "IC50": 0.71}, {"compound": "CN(CCCC1(c2ccc(Cl)cc2)CCc2cc(Cl)ccc21)CC(=O)O", "note": "(centres unmarked) [Compound 3z, N-{3-[5-Chloro-1-(4-chloro-phenyl)-indan-1-yl]-propyl}-N-methylglycine hydrochloride]", "IC50": 1.1}, {"compound": "C[C@@H](C(=O)O)N(C)CCCC1(c2ccc(Cl)cc2)CCc2cc(Cl)ccc21", "note": "(some centres unmarked) [Compound 3aa, N-{3-[5-Chloro-1-(4-chloro-phenyl)-indan-1-yl]-propyl}-N-methylalanine hydrochloride]", "IC50": 0.47}, {"compound": "COc1ccc(C2(CCCN(C)CC(=O)O)OCc3cc(C#N)ccc32)cc1", "note": "(centres unmarked) [Compound 3v, N-{3-[5-cyano-1-(4-methoxyphenyl)-1,3-dihydroisobenzofuran-1-yl]-1-propyl}-N-methylglycine hydrochloride]", "IC50": 8.6}, {"compound": "CN(CCCC1(c2ccc(Cl)cc2)OCc2c(Cl)cccc21)CC(=O)O", "note": "(centres unmarked) [Compound 3k, N-{3-[4-chloro-1-(4-chlorophenyl)-1,3-dihydroisobenzofuran-1-yl]-1-propyl}-N-methylglycine hydrochloride.]", "IC50": 4.1}, {"compound": "CN(CCC1(c2ccc(Cl)cc2)OCc2cc(-c3cc(Cl)ccc3Cl)ccc21)CC(=O)O", "note": "(centres unmarked) [Compound 4k, N-{3-[1-(4-Chloro-phenyl)-5-(2,5-dichloro-phenyl)-1,3-dihydro-isobenzofuran-1-yl]-ethyl}-N-methyl-glycine]", "IC50": 0.95}, {"compound": "Cc1ccc(C2(CCCN(C)CC(=O)O)OCc3ccc(Cl)cc32)cc1", "note": "(centres unmarked) [Compound 3n, N-{3-[6-chloro-1-(4-methylphenyl)-1,3-dihydroisobenzofuran-1-yl]-1-propyl}-N-methylglycine hydrochloride.]", "IC50": 9.6}, {"compound": "N-{3-[1-(4-methylphenyl)-1,3-dihydroisobenzofuran-1-yl]-1-propyl}-N-methylglycine. hydrochloride [Compound 3f]", "IC50": 5.4}]}]}
